Laboratory results published in US20220110934A1, “PHARMACEUTICAL COMPOSITION” (Ricoh Company, Ltd., priority 2019, published 2022).

Experiment: Dissolution test in physiological saline (Test Example 1, FIG. 11)
Format: physicochemical
Details: 6 mg/mL as nintedanib in 100 mL physiological saline, 20° C., stirring
Description: The pharmaceutical composition (i) or the nintedanib ethanesulfonate (obtained from LC laboratories) was added to 100 mL of physiological saline so that the amount of nintedanib would be 6 mg/mL. The resultant mixture was subjected to a dissolution test at a liquid temperature of 20° C. under stirring with a stirrer.
FIG. 11 is a graph presenting the concentrations of nintedanib in the solutions measured over time.

## COC(=O)c1ccc2c(c1)NC(=O)/C2=C(\Nc1ccc(N(C)C(=O)CN2CCN(C)CC2)cc1)c1ccccc1 [nintedanib ethanesulfonate, Nintedanib ethanesulfonate]
  course of solubility (concentration of nintedanib in solution) over time: solubility decreased over time and sedimentation of insoluble matter was observed
